The values below come from US20230165252A1, “ACTIVE COMPOUND COMBINATIONS” (Bayer Aktiengesellschaft, priority 2020, published 2023).

Values joined by “and” are separate entries in the source; they are usually repeats but may differ in a detail not shown here. Equal values may be shown once. Read-outs that look alike come from different tables or passages of the source.

Holding throughout (type): cell-based
In one test the test system is Alternaria alternate. As to the kind of experiment: in vitro-Test with Alternaria alternate (microtiter growth inhibition). The procedure:
(§1) The degree of efficacy expressed in % is denoted: 0% means an efficacy, which corresponds to that of the control, while an efficacy of 100% means that no disease is observed.
(§2) If the actual fungicidal activity exceeds the calculated value, then the activity of the combination is super-additive, i.e. a synergistic effect exists. In this case, the efficacy, which was actually observed, must be greater than the value for the expected efficacy (E), that was calculated from the abovementioned formula.
(§3) Example: In Vitro-Test with Fungal Microorganisms
(§4) Wells of 96-well microtiter plates are filled with 10 μl of a preparation of test compound or compound combination in methanol+emulsifier alkylaryl-polyglycol-ether. Thereafter, the solvent is evaporated in a hood. At the next step, 100 μl of liquid potato dextrose medium is given into each well, that has been amended with an appropriate concentration of spores or mycelium suspension of the test fungus.
(§5) With the aid of a photometer, the extinction in all wells is measured at the wavelength of 620 nm.
(§6) The microtiter plates are incubated at 20° C. and 85% relative humidity. The inhibition of growth is determined again photometrically 3-5 days after the application. Efficacy is calculated in relation to the untreated control, 0% efficacy means fungal growth as high as in untreated control while 100% efficacy means no fungal growth is measured.

A further test has as its system Cercospora beticola. As to the kind of experiment: in vitro-Test with Cercospora beticola (microtiter growth inhibition). Particulars: alone. The method, then: as §1, §2, §3, §4, §5, §6
The test system of a further test is Fusarium culmorum. Nature of the test: in vitro-Test with Fusarium culmorum (microtiter growth inhibition). To be noted: Fusarium culmorum, read-out: Efficacy. The procedure: as §1, §2, §3, §4, §5, §6
A further test has as its system Cordana musae. Nature of the test: in vitro-Test with Cordana musae (microtiter growth inhibition). Particulars: single substance. The method, then:
as §1, §2, §3, §4, §5, §6

Another test has as its system Diaporthe citri. As to the kind of experiment: in vitro-Test with Diaporthe citri (microtiter growth inhibition). The procedure:
as §2, §3, §4, §5, §6

Another test deals with Botrytis cinerea. As to the kind of experiment: in vitro-Test with Botrytis cinerea (microtiter growth inhibition). To be noted: applied alone. The procedure: as §1, §2, §3, §4, §5, §6
The subject of the next test is Parastagonospora nodorum. As to the kind of experiment: in vitro-Test with Parastagonospora nodorum (microtiter growth inhibition). The procedure:
as §1, §2, §3, §4, §5, §6

The test system of test [1] is Ustilago segetum var. avenae. Nature of the test: in vitro-Test with Ustilago segetum var. avenae (microtiter growth inhibition). To be noted: single compound. The procedure: as §1, §2, §3, §4, §5, §6
Where [2] appears, read: Alternaria, 20 ppm, alone, read-out: Efficacy %.
Setting [3] is: Alternaria, applied alone, read-out: Efficacy.
The mark [4] stands for this setting: Alternaria, applied alone, 20 ppm, read-out: Efficacy.
The mark [5] stands for this setting: Neocordana musae, read-out: Efficacy.
The mark [6] stands for this setting: Alternaria, alone, read-out: Efficacy %.
Where [7] appears, read: Alternaria, 4 ppm, alone, read-out: Efficacy %.
The mark [8] stands for this setting: Diaporthe citri, applied alone, 4 ppm, read-out: Efficacy.
[9] abbreviates: Neocordana musae, 0.8 ppm, read-out: Efficacy.
[10] abbreviates: Neocordana musae, 20 ppm, read-out: Efficacy.
[11] abbreviates: Cercospora beticola, read-out: Efficacy %.
Setting [12] is: Diaporthe citri, read-out: Efficacy.
Setting [13] is: Diaporthe citri, applied alone, read-out: Efficacy.

`O=C1C2CC=CCC2C(=O)N1SC(Cl)(Cl)Cl` (centres unmarked) [captan]: the inhibition of growth at 20 ppm in the test on Alternaria alternate (setting [2]) stood at 83%; with Alternaria alternate (setting [4]), 100%; in the test with Fusarium culmorum, 5%. Also, the inhibition of growth at 0.8 ppm is 10% with Alternaria alternate (setting [3]) and 2% with Fusarium culmorum. Also, the Efficacy with Alternaria alternate (applied alone, 4 ppm) was 100%; in the test on Cordana musae (0.8 ppm) it was 0%. Moreover, the inhibition of growth at 4 ppm in the test with Cercospora beticola (Cercospora beticola, 4 ppm, read-out: Efficacy %) was 73%; in the test on Cordana musae (setting [5]), 2%.

On to `N#Cc1ccccc1NC(=O)c1snc(Cl)c1Cl` [isotianil], for which the Efficacy % came out at 0% with Alternaria alternate (4 ppm, alone); 7% in the test with Alternaria alternate (20 ppm, alone); 0% in the test with Alternaria alternate (100 ppm, alone); 17% in the test with Cercospora beticola (0.8 ppm); 17% with Cercospora beticola (4 ppm); 12% in the test with Cercospora beticola (20 ppm). Further, the Efficacy % in the test on Cercospora beticola (100 ppm) was 29%. Also, the Efficacy is 0% with Diaporthe citri (0.8 ppm); 24% with Diaporthe citri (4 ppm); 0% in the test with Diaporthe citri (20 ppm); 0% in the test with Diaporthe citri (100 ppm); 12% in the test with Diaporthe citri (applied alone, 0.8 ppm); 19% and 23% in the test with Diaporthe citri (applied alone, 4 ppm). Besides, the Efficacy in the test on Diaporthe citri (applied alone, 20 ppm) is 5% and 14%; in the test with Diaporthe citri (applied alone, 100 ppm), 5%; with Cordana musae (20 ppm), 3%; in the test on Cordana musae (100 ppm) it was 16%.

On to `OC(Cc1ccccc1Cl)(Cn1nc[nH]c1=S)C1(Cl)CC1` (centres unmarked) [prothioconazole], for which the inhibition of growth at 0.008 ppm in the test on Alternaria alternate (Alternaria, 0.008 ppm, alone, read-out: Efficacy %) was determined as 0%; with Cercospora beticola (Cercospora beticola, 0.008 ppm, read-out: Efficacy %), 0%; in the test on Cordana musae (Neocordana musae, 0.008 ppm, read-out: Efficacy), 0%. Moreover, the inhibition of growth at 0.2 ppm in the test with Alternaria alternate (setting [6]) was determined as 100%; in the test with Alternaria alternate (setting [3]), 99%; in the test with Cordana musae (Neocordana musae, 0.2 ppm, read-out: Efficacy), 100%. The inhibition of growth at 1 ppm was determined as 100% in the test on Alternaria alternate (Alternaria, 1.0 ppm, alone, read-out: Efficacy %) and 100% in the test on Alternaria alternate (Alternaria, applied alone, 1.0 ppm, read-out: Efficacy). Besides, the inhibition of growth at 0.04 ppm in the test on Alternaria alternate (Alternaria, applied alone, 0.04 ppm, read-out: Efficacy) was 32%; in the test on Cercospora beticola (Cercospora beticola, 0.04 ppm, read-out: Efficacy %), 88%; in the test with Cordana musae (Neocordana musae, 0.04 ppm, read-out: Efficacy) it was 64%.

Turning to `Cc1cc(C)nc(Nc2ccccc2)n1` [pyrimethanil], the inhibition of growth at 0.8 ppm in the test on Alternaria alternate (setting [6]) was determined as 88%; in the test on Alternaria alternate (setting [3]), 100%; in the test with Cercospora beticola (Cercospora beticola, 0.8 ppm, read-out: Efficacy %), 0%; with Cordana musae (setting [9]), 9%. The inhibition of growth at 4 ppm worked out at 99% in the test with Alternaria alternate (setting [7]); 100% in the test with Alternaria alternate (Alternaria, applied alone, 4 ppm, read-out: Efficacy); 94% in the test on Diaporthe citri (setting [8]). Besides, the inhibition of growth at 20 ppm in the test on Alternaria alternate (setting [2]) amounted to 100%; with Alternaria alternate (setting [4]), 100%; in the test on Cercospora beticola (Cercospora beticola, 20 ppm, read-out: Efficacy %), 100%; in the test with Cordana musae (setting [10]), 15%. Moreover, the Efficacy worked out at 96% with Botrytis cinerea (0.8 ppm), 99% in the test on Botrytis cinerea (4 ppm), 100% with Parastagonospora nodorum (0.8 ppm) and 100% with Parastagonospora nodorum (4 ppm).

Consider `COc1cc(C)c(C(=O)c2c(OC)ccc(Br)c2C)c(OC)c1OC` [Compound 15.016, metrafenone], for which, in the test with Fusarium culmorum, the inhibition of growth at 0.8 ppm worked out at 0%, the inhibition of growth at 4 ppm came out at 0% and the inhibition of growth at 20 ppm worked out at 0%. Also, the inhibition of growth at 0.8 ppm in the test with Cordana musae (setting [9]) stood at 0%. Moreover, the inhibition of growth at 20 ppm in the test with Cordana musae (setting [10]) came out at 22%.

Regarding `CCCN(CC)CC1COC2(CCC(C(C)(C)C)CC2)O1` (centres unmarked) [spiroxamine], the inhibition of growth at 0.8 ppm in test [1] (0.8 ppm, read-out: Efficacy %) was determined as 0%; in the test with Alternaria alternate (setting [6]) it was 1%; in the test with Fusarium culmorum, 0%; in the test on Diaporthe citri (Diaporthe citri, applied alone, 0.8 ppm, read-out: Efficacy) it was 0%. Besides, the inhibition of growth at 4 ppm was 0% in test [1] (4 ppm, read-out: Efficacy %); 1% with Alternaria alternate (setting [7]); 0% in the test with Fusarium culmorum; 0% in the test on Diaporthe citri (setting [8]); 0% in the test on Cordana musae (setting [5]). Further, the inhibition of growth at 20 ppm in test [1] (20 ppm, read-out: Efficacy %) stood at 87%; with Fusarium culmorum, 2%; with Diaporthe citri (Diaporthe citri, applied alone, 20 ppm, read-out: Efficacy), 6%; with Cordana musae (setting [10]), 4%. Further, the results for the Efficacy in the test on Botrytis cinerea (0.8 ppm) and in the test on Botrytis cinerea (4 ppm) were 5% and 4%, respectively.

Take `O=C1c2ccccc2C(=O)N1SC(Cl)(Cl)Cl` [folpet]: the inhibition of growth at 0.08 ppm in test [1] (0.08 ppm, read-out: Efficacy %) came to 12%; in the test on Alternaria alternate (Alternaria, applied alone, 0.08 ppm, read-out: Efficacy), 5%; in the test with Cercospora beticola (setting [11]), 7%; in the test with Diaporthe citri (setting [12]), 20%; in the test with Diaporthe citri (setting [13]), 0%. The inhibition of growth at 0.4 ppm with Alternaria alternate (setting [6]) came to 0%; in the test with Alternaria alternate (setting [3]), 1%; in the test with Fusarium culmorum (0.4 ppm), 0%; in the test on Diaporthe citri (setting [12]), 33%; with Diaporthe citri (setting [13]) it was 53%. Also, the inhibition of growth at 2 ppm in the test with Alternaria alternate (Alternaria, applied alone, 2 ppm, read-out: Efficacy) turned out to be 100%; with Cercospora beticola (Cercospora beticola, 2 ppm, read-out: Efficacy %), 100%; with Fusarium culmorum (2 ppm) it was 62%; with Diaporthe citri (Diaporthe citri, 2 ppm, read-out: Efficacy), 98%. The inhibition of growth at 10 ppm in the test with Alternaria alternate (Alternaria, applied alone, 10 ppm, read-out: Efficacy) was 100%; in the test on Cercospora beticola (setting [11]), 100%; in the test on Fusarium culmorum (10 ppm) it was 100%; with Diaporthe citri (setting [13]) it was 99%.

In the case of `CC(O)(Cn1cncn1)c1ccc(Oc2ccc(Cl)cc2)cc1C(F)(F)F` (centres unmarked) [mefentrifluconazole], the Efficacy % in test [1] (0.008 ppm) is reported as 5%; in test [1] (0.2 ppm), 67%; in test [1] (1.0 ppm), 100%; in the test with Alternaria alternate (0.008 ppm, alone), 0%; in the test with Alternaria alternate (1.0 ppm, alone) it was 100%; in the test on Cercospora beticola (0.04 ppm), 100%. In the test on Cercospora beticola (0.2 ppm), the Efficacy % is 100%. Further, the Efficacy with Botrytis cinerea (0.04 ppm) was 36%; with Botrytis cinerea (0.2 ppm), 63%; in the test with Botrytis cinerea (1.0 ppm), 100%; in the test with Parastagonospora nodorum (0.008 ppm) it was 85%; with Parastagonospora nodorum (0.04 ppm), 97%; in the test on Parastagonospora nodorum (0.2 ppm) it was 99%. For the same molecule, the Efficacy with Parastagonospora nodorum (1.0 ppm) was determined as 100%; in the test with Diaporthe citri (applied alone, 0.04 ppm), 85%; with Diaporthe citri (applied alone, 0.2 ppm), 100%; with Diaporthe citri (applied alone, 1.0 ppm), 100%; with Cordana musae (0.008 ppm) it was 0%; in the test with Cordana musae (1.0 ppm), 100%.

As for `Fc1ccc(Oc2ccnc3cc(Cl)cc(Cl)c23)cc1` [Compound 13.005, quinoxyfen], the inhibition of growth at 0.08 ppm with Cercospora beticola (setting [11]) is 0%. Further, the inhibition of growth at 0.4 ppm was 2% in the test on Cercospora beticola (Cercospora beticola, 0.4 ppm, read-out: Efficacy %) and 0% in the test with Diaporthe citri (setting [13]). In addition, the inhibition of growth at 10 ppm came out at 20% in the test with Cercospora beticola (setting [11]); 54% in the test with Diaporthe citri (setting [13]); 15% with Cordana musae (Neocordana musae, 10 ppm, read-out: Efficacy). Moreover, the inhibition of growth at 2 ppm with Cordana musae (Neocordana musae, 2 ppm, read-out: Efficacy) is 1%.
